Source: US10258642B2, “Dextran sulfate for use in mobilization of cells” (TX MEDIC AB, priority 2013, dated 2019)
Where “and” joins values, the source holds several entries; their conditions need not be identical. Equal entries are not always repeated. Marks after values point to notes of the source that are not given here.

Tests used:
[1] = tested on: peripheral blood cells; assay: effect of administration route, hematological analysis; type: in vivo, mice; details: 30 minutes after administration
Protocol: (§1) Peripheral blood was sampled by terminal heart puncture under isoflurane-anesthesia using EDTA-flushed syringes and transferred to polypropylene tubes containing 1.6 mg EDTA (Sarstedt, Landskrona, Sweden).
Mobilization was performed on DBA/2N mice (9-10 months, Charles River) using 100 mg/kg dextran sulfate (Meito, i.v. and s.c.).
The effect on peripheral blood cells after administration of 100 mg/kg dextran sulfate i.v. and s.c. was compared (n=5). Cells were harvested 30 minutes after administration for both administration routes.

[2] = tested on: peripheral blood cells; details: single dose; AMD3100 s.c., dextran sulfate i.v.
[3] = tested on: hematopoietic colony-forming cells (CFC); assay: time-effect relationship, colony-forming cell assay; type: in vivo; details: mice
Text: Peripheral blood was sampled by terminal heart puncture under isoflurane-anesthesia using EDTA-flushed (0.2 M EDTA prepared from a stock solution of 0.5 M EDTA (prepared by Rudbeck laboratory) diluted 1:2.5 in 0.9% NaCl) syringes.

[4] = tested on: lymphocytes; assay: cell (lymphocyte) mobilization in humans after 10 min i.v. infusion; type: in vivo
Protocol: FIG. 13 illustrates mobilization of lymphocytes in peripheral blood in humans receiving a 10 min i.v. infusion of 15 mg/kg LMW-DS (top panel), 18 mg/kg LMW-DS (middle panel) or 24 mg/kg LMW-DS (lower panel) at time 0. The black line represents average lymphocyte levels and gray lines represent lymphocyte levels in individual humans.
Thus, the peak in cell mobilization starts about 1 hour after dextran sulfate administration, which is shown in […] exemplified by mobilization of lymphocytes following administration of different doses of dextran sulfate to human subjects at time 0 hours. Thus, the peak effect in cell mobilization in humans typically occurs within the first three hours following dextran sulfate administration.

[5] = tested on: HGF; assay: s.c. dose finding study, HGF-ELISA; details: 50, 150 and 500 mg/kg s.c.
[6] = tested on: SDF-1; details: single injection, monkeys (Sweeney 2002); cited from earlier work
[7] = tested on: HGF; assay: time-effect relationship, HGF-ELISA; type: in vivo, mice; details: for HGF highest level: 15 minutes after administration, mice; for HGF: i.v., plasma, HGF measured in another experiment
Protocol: Plasma was prepared by centrifuging EDTA blood for 5 minutes at 3000 g, and frozen at […] until analysis.

[8] = tested on: peripheral blood cells; assay: combination with G-CSF, hematological analysis; type: in vivo, mice; details: single administration, mice
Protocol: G-CSF (NEUPOGEN®, Amgen, Holland) was supplied as sterile isotonic aqueous solution at 0.3 mg/mL and was diluted in normal saline to a concentration of 50 μg/mL. G-CSF was administered at a dose of 2.5 μg as a single subcutaneous injection, morning and evening Day -2 and Day -1. Dextran sulfate of different average molecular weights were used:
Standard treatment of patients prior to apheresis is based on daily injections of G-CSF for up to one week. Clinically dextran sulfate could be used in combination with G-CSF. In a study in mice 2.5 μg/animal of G-CSF was administered twice daily (8 hrs apart) for 2 days (Broxmeyer 1999).

[9] = tested on: hematopoietic colony-forming cells (CFC); assay: i.v. dose finding study, colony-forming cell assay; type: in vivo, mice
Protocol: Blood (100-200 μL) was transferred to polypropylene tubes containing heparin (final concentration 17.5 IE/mL). Erythrocytes were depleted using ammonium chloride solution (StemCell Technologies, Vancouver, BC, Canada). Remaining cells were resuspended in Iscove's modified Dulbecco's Medium with 2% fetal bovine serum (StemCell Technologies) and mixed with 2 mL of methylcellulose media supplemented with a cocktail of recombinant cytokines (MethoCult 3434; StemCell Technologies) and penicillin-streptomycin according to manufacturer's instructions. Cultures of 1.1 mL containing HPCs were plated onto 35 mm dishes (Sarstedt, Landskrona, Sweden) and placed in a humidified chamber with 5% CO2 at 37° C. Total number of colonies was counted on day 12 of culture.

[10] = tested on: peripheral blood cells; assay: time-effect relationship, hematological analysis; details: 100 mg/kg i.v.; for Lymph / PLT / WBC: mean±SEM
Protocol: as §1

[11] = tested on: peripheral blood cells; assay: s.c. dose finding study, hematological analysis of peripheral blood; details: for Basophils / Eosinophils / Erythrocytes / Hematocrit / Hemoglobin / LUC / Leukocytes (WBC) / Lymphocytes / MCHC / MCV / MPV / Monocytes / Neutrophils / Platelets / Reticulocytes: 3 hours, mean ± SEM

dextran sulfate [LMW-DS]
Lymphocytes ([1]; 100 mg/kg (Meito) i.v.): 12.6 ± 1.7 *10^9/L
WBC ([1]; 100 mg/kg (Meito) i.v.): 16.2 ± 1.8 *10^9/L
Lymphocytes ([1]; 100 mg/kg (Meito) s.c.): 9.9 ± 1.2 *10^9/L
circulating WBC, lymphocytes, CFC or CFC subtypes, i.v. versus s.c. ([1]; 100 mg/kg): no significant differences
general increase of WBC over control [2]: 4-5 times
time at which the number of CFCs peaks (peak starts) ([3]; 100 mg/kg i.v.): 7.5 min
time of BFU-E peak ([3]; 100 mg/kg i.v.): 7.5 min
time of CFU-GM/CFU-GEMM peak ([3]; 100 mg/kg i.v.): 15 to 30 min
persistence of the CFC peak [3]: at least 1 hour
time of peak in mobilized cells (CFCs) after dextran sulfate administration [3]: 7.5 to 30 min
time of peak in mobilized cells after dextran sulfate administration ([4]; humans): 30 to 120 min
time at which cell mobilization is back to normal levels ([4]; preliminary human data): about 24 hours
time at which cell mobilization starts to decline ([4]; preliminary human data): about 6 hours
time of peak of cell mobilization after administration ([4]; preliminary human data, lymphocytes): about 1 hour
levels of circulating HGF [5]: significantly (p<0.001) increased levels
time of maximum levels of peripheral SDF-1 [6]: 6 h
time of return of peripheral SDF-1 to baseline [6]: 24 h
HGF highest level ([7]; listed as Dextran sulfate): 16000 pg/mL
HGF highest level ([7]; listed as dextran sulfate): 15960 pg/mL and 16000 pg/mL
increase of HGF compared to baseline levels ([7]; after 15 minutes): > 100 fold
HGF increase relative to plerixafor (AMD3100) ([7]; dextran sulfate 15 minutes versus AMD3100 after 1 hour): 25 fold
HGF ([7]; 15 min): 15,960 ± 1,450 pg/mL
HGF ([7]; 30 min): 13,800 ± 1,100 pg/mL
HGF ([7]; 1 hr): 7,740 ± 510 pg/mL
HGF ([7]; 3 hr): 710 ± 230 pg/mL
release of lymphocytes in single therapy compared to single administration of G-CSF or plerixafor [8]: increased lymphocytes
release of lymphocytes in single therapy compared to single administration of G-CSF or plerixafor ([8]; listed as dextran sulfate): at least doubles
mobilization effect on CFC ([9]; lowest dose given, 25 mg/kg i.v., p<0.001): significant evident already at the lowest dose given
increase of CFC over control ([9]; single dose, AMD3100 s.c., dextran sulfate i.v.): 6-12 times
BFU-E compared with AMD3100 ([9]; single i.v. injection): seemed to increase BFU-E to a greater extent than AMD3100
number of platelets (PLT) [10]: did not affect
Lymph ([10]; 7.5 min): 4.6 ± 0.5*** *10^9/L
PLT ([10]; 7.5 min): 1,034 ± 31 *10^9/L
WBC ([10]; 7.5 min): 5.6 ± 0.5* *10^9/L
Lymph ([10]; 15 min): 8.9 ± 0.7*** *10^9/L
PLT ([10]; 15 min): 1,122 ± 58 *10^9/L
WBC ([10]; 15 min): 10.2 ± 0.7*** *10^9/L
Lymph ([10]; 30 min): 12.3 ± 1.1*** *10^9/L
PLT ([10]; 30 min): 978 ± 64 *10^9/L
WBC ([10]; 30 min): 14.6 ± 1.3*** *10^9/L
Lymph ([10]; 1 hr): 8.8 ± 0.5*** *10^9/L
PLT ([10]; 1 hr): 965 ± 23 *10^9/L
WBC ([10]; 1 hr): 11.2 ± 0.6*** *10^9/L
Lymph ([10]; 3 hr): 5.2 ± 0.8** *10^9/L
PLT ([10]; 3 hr): 936 ± 26 *10^9/L
WBC ([10]; 3 hr): 6.8 ± 1.0* *10^9/L
time of highest numbers of WBC and lymphocytes ([10]; mice): around 30 minutes
circulating white blood cells (WBC), mainly lymphocytes, and HGF ([11]; 10-500 mg/kg s.c., 3 hours after administration): dose-dependent increase
Basophils ([11]; LMW-DS (pKC) 10 mg/kg s.c.): 0.02 ± 0.0 10^9 cells/L
Eosinophils ([11]; LMW-DS (pKC) 10 mg/kg s.c.): 0.2 ± 0.0† 10^9 cells/L
Erythrocytes ([11]; LMW-DS (pKC) 10 mg/kg s.c.): 9.0 ± 0.0††† 10^12 cells/L
Hematocrit ([11]; LMW-DS (pKC) 10 mg/kg s.c.): 0.4 ± 0.0
Hemoglobin ([11]; LMW-DS (pKC) 10 mg/kg s.c.): 122.0 ± 1.7
LUC ([11]; LMW-DS (pKC) 10 mg/kg s.c.): 0.1 ± 0.0* 10^9 cells/L
Leukocytes (WBC) ([11]; LMW-DS (pKC) 10 mg/kg s.c.): 9.0 ± 1.2* 10^9 cells/L
Lymphocytes ([11]; LMW-DS (pKC) 10 mg/kg s.c.): 6.1 ± 0.5** 10^9 cells/L
MCHC ([11]; LMW-DS (pKC) 10 mg/kg s.c.): 323.7 ± 3.8 g/L
MCV ([11]; LMW-DS (pKC) 10 mg/kg s.c.): 41.9 ± 0.1 fL
MPV ([11]; LMW-DS (pKC) 10 mg/kg s.c.): 7.7 ± 0.2
Monocytes ([11]; LMW-DS (pKC) 10 mg/kg s.c.): 0.6 ± 0.011 10^9 cells/L
Neutrophils ([11]; LMW-DS (pKC) 10 mg/kg s.c.): 1.9 ± 0.4 10^9 cells/L
Platelets ([11]; LMW-DS (pKC) 10 mg/kg s.c.): 1083.3 ± 116.3† 10^9 cells/L
Reticulocytes ([11]; LMW-DS (pKC) 10 mg/kg s.c.): 222.7 ± 6.3 10^9 cells/L
Basophils ([11]; LMW-DS (pKC) 50 mg/kg s.c.): 0.03 ± 0.0 10^9 cells/L
Eosinophils ([11]; LMW-DS (pKC) 50 mg/kg s.c.): 0.2 ± 0.0 10^9 cells/L
Erythrocytes ([11]; LMW-DS (pKC) 50 mg/kg s.c.): 9.2 ± 0.4† 10^12 cells/L
Hematocrit ([11]; LMW-DS (pKC) 50 mg/kg s.c.): 0.4 ± 0.0
Hemoglobin ([11]; LMW-DS (pKC) 50 mg/kg s.c.): 127.8 ± 5.0
LUC ([11]; LMW-DS (pKC) 50 mg/kg s.c.): 0.1 ± 0.0* 10^9 cells/L
Leukocytes (WBC) ([11]; LMW-DS (pKC) 50 mg/kg s.c.): 9.4 ± 0.7 10^9 cells/L
Lymphocytes ([11]; LMW-DS (pKC) 50 mg/kg s.c.): 7.3 ± 0.6**/f 10^9 cells/L
MCHC ([11]; LMW-DS (pKC) 50 mg/kg s.c.): 324.3 ± 1.41 g/L
MCV ([11]; LMW-DS (pKC) 50 mg/kg s.c.): 42.6 ± 0.3 fL
MPV ([11]; LMW-DS (pKC) 50 mg/kg s.c.): 7.9 ± 0.1
Monocytes ([11]; LMW-DS (pKC) 50 mg/kg s.c.): 0.3 ± 0.1 10^9 cells/L
Neutrophils ([11]; LMW-DS (pKC) 50 mg/kg s.c.): 1.5 ± 0.2 10^9 cells/L
Platelets ([11]; LMW-DS (pKC) 50 mg/kg s.c.): 902.0 ± 96.4 10^9 cells/L
Reticulocytes ([11]; LMW-DS (pKC) 50 mg/kg s.c.): 230.1 ± 64.6 10^9 cells/L
Basophils ([11]; LMW-DS (pKC) 150 mg/kg s.c.): 0.1 ± 0.0** 10^9 cells/L
Eosinophils ([11]; LMW-DS (pKC) 150 mg/kg s.c.): 0.3 ± 0.1* 10^9 cells/L
Erythrocytes ([11]; LMW-DS (pKC) 150 mg/kg s.c.): 8.3 ± 0.6 10^12 cells/L
Hematocrit ([11]; LMW-DS (pKC) 150 mg/kg s.c.): 0.3 ± 0.0
Hemoglobin ([11]; LMW-DS (pKC) 150 mg/kg s.c.): 113.3 ± 8.2
LUC ([11]; LMW-DS (pKC) 150 mg/kg s.c.): 0.1 ± 0.0***/†† 10^9 cells/L
Leukocytes (WBC) ([11]; LMW-DS (pKC) 150 mg/kg s.c.): 15.7 ± 0.4***/††† 10^9 cells/L
MCHC ([11]; LMW-DS (pKC) 150 mg/kg s.c.): 329.3 ± 4.9 g/L
MCV ([11]; LMW-DS (pKC) 150 mg/kg s.c.): 41.7 ± 0.4 fL
MPV ([11]; LMW-DS (pKC) 150 mg/kg s.c.): 7.2 ± 0.5
Monocytes ([11]; LMW-DS (pKC) 150 mg/kg s.c.): 0.4 ± 0.0*/†† 10^9 cells/L
Neutrophils ([11]; LMW-DS (pKC) 150 mg/kg s.c.): 2.4 ± 0.3** 10^9 cells/L
Platelets ([11]; LMW-DS (pKC) 150 mg/kg s.c.): 893.5 ± 60.8† 10^9 cells/L
Reticulocytes ([11]; LMW-DS (pKC) 150 mg/kg s.c.): 243.7 ± 23.7 10^9 cells/L
Basophils ([11]; LMW-DS (pKC) 500 mg/kg s.c.): 0.1 ± 0.0* 10^9 cells/L
Eosinophils ([11]; LMW-DS (pKC) 500 mg/kg s.c.): 0.4 ± 0.1* 10^9 cells/L
Erythrocytes ([11]; LMW-DS (pKC) 500 mg/kg s.c.): 9.4 ± 0.2††† 10^12 cells/L
Hematocrit ([11]; LMW-DS (pKC) 500 mg/kg s.c.): 0.4 ± 0.0
Hemoglobin ([11]; LMW-DS (pKC) 500 mg/kg s.c.): 130.3 ± 3.1
LUC ([11]; LMW-DS (pKC) 500 mg/kg s.c.): 0.3 ± 0.2 10^9 cells/L
Leukocytes (WBC) ([11]; LMW-DS (pKC) 500 mg/kg s.c.): 21.8 ± 2.5***/†† 10^9 cells/L
MCHC ([11]; LMW-DS (pKC) 500 mg/kg s.c.): 327.3 ± 2.5 g/L
MCV ([11]; LMW-DS (pKC) 500 mg/kg s.c.): 42.4 ± 0.3 fL
MPV ([11]; LMW-DS (pKC) 500 mg/kg s.c.): 7.9 ± 0.1
Monocytes ([11]; LMW-DS (pKC) 500 mg/kg s.c.): 0.5 ± 0.1*/† 10^9 cells/L
Neutrophils ([11]; LMW-DS (pKC) 500 mg/kg s.c.): 2.7 ± 0.3**/† 10^9 cells/L
Platelets ([11]; LMW-DS (pKC) 500 mg/kg s.c.): 893.5 ± 61.0†† 10^9 cells/L
Reticulocytes ([11]; LMW-DS (pKC) 500 mg/kg s.c.): 224.5 ± 35.2 10^9 cells/L
